# Data taken from PubChem BioAssay AID1053150 (Broad Institute, 2014).
# System: HepG2 13C-glycerol triglyceride synthesis, LC-MS, 24 h
# Assay: TAG formation decrease in hepatoma cells – cell-based, HepG2, LC-MS, 13C-glycerol labeling, cherry-pick, mechanism study for Trib1 inducer project, late-stage follow-up (AID 1053150)
# Conditions: stronger effect = higher value; dose or concentration not given here
structure (smiles),measurement,value
CN1C(=O)c2cc(NC(=O)c3ccc(C(F)(F)F)cc3)ccc2OC[C@@H]2O[C@H](CC(=O)NC3Cc4ccccc4C3)CC[C@@H]21,TAG formation rate inhibition,2%
